Results on one compound are retold here after patent US20250163057A1, “DCN-1 MODULATING COMPOUNDS AND METHODS OF USE THEREOF” (Cellarity, Inc., priority 2023, published 2025).

For assay [1], the system named is HBG1 mRNA and HbF protein in bone marrow cells. As to the kind of experiment: Induction of fetal hemoglobin by hydroxyurea and I-73 in human CD34+ cell reconstituted immunodeficient mice, with analysis of synergistic effect. The class given is in vivo, NBSGW mice engrafted with human CD34+ cells. How it is done:
The model employed for assessment of induction of fetal hemoglobin by I-73 and hydroxyurea involved the use of human stem cell-reconstituted immunodeficient mice. Specifically, three hundred thousand human CD34-positive cells from G-CSF-mobilized human peripheral blood […] (PBMCs) were injected into the tail veins of NOD.Cg-KitW-41J Tyr+Prkdcscid Il2rgtm1Wjl/ThomJ (NBSGW) mice (JAX Strain No. 026622) on day 0. Twelve weeks later, mice were checked for human cell engraftment by sampling PBMCs from blood taken from the tail vein and staining for expression of murine or human CD45 by flow cytometry. After removing from the study those mice having greater than 10% human cells or less than 1% human cells in their peripheral blood, the remaining mice were randomized into treatment groups based on the human cell percentage. Thirteen weeks post engraftment, treatment was initiated with either hydroxyurea, I-73, or a combination of both compounds. Hydroxyurea was formulated in PBS (pH 7.4) and I-73 was formulated in 5% Cremophor RH 40/20% hydroxypropyl-β-cyclodextrin (Crem-CD) daily. Mice received either PBS or hydroxyurea each morning and I-73 or Crem-CD each afternoon by oral gavage. After twenty days of daily treatment, the mice were euthanized and their bone marrow (femurs, tibia and critae) were individually collected for subsequent analysis.
Bone marrow cell pellets (total 500K cells) were lysed in 20 μL of RLT (QIAGEN, 79216) with 1×β-mercaptoethanol (Gibco, 21985-023) and H2O followed by hybridizations. Hybridizations were done in a total volume of 15 μL [3 μL of RNA lysate added to master mix of 12 μL probe A/B (purchased from IDT), capture probe/reporter probes (NanoString™, XT TagSet-24, 121000602), proteinase K (Fisher Scientific, E00491) and H2O suspended in hybridization buffer]. Samples were hybridized at 65° C. for 22 hr. Following hybridization, the tripartide complexes were purified, immobilized by nCounter Prep Station and imaged by Digital Analyzer (nCounter MAX/FLEX Analysis System), to generate digital counts of barcodes corresponding to each target in the multiplexed reaction. Labeled barcodes obtained from unamplified extracts were counted at 555 images or field of view (FOV). The barcode counts for each sample were recorded in Reporter Code Count (RCC) files that are imported into nSolver analysis software (provided with CodeSet by NS) for quality control evaluation.
To assess levels of fetal hemoglobin by AlphaLISA, cells (200 k bone marrow cells/well) were lysed by resuspending pellets in 200 μL of lysis buffer plus protease inhibitor cocktail (100×), mixed well and incubating at room temperature for 30 minutes on the plate shaker @300 RPMs. Samples were then diluted 1:10 in a new 96-well round bottom plate by taking 10 uL of lysate and adding 90 μL of AlphaLISA immunoassay buffer. To create the “reaction plate”, 20 μL of Acceptor Beads (50 ug/mL final concentration) was added to each well using a multi-channel pipet. 10 uL of diluted cell lysate was added to the wells and mixed well. 20 μL of AlphaLISA immunoassay buffer was added to each well. Biotinylated antibody (final concentration) was then added to each well. The reaction plate on then placed on a plate shaker at 300 rpm for one hour to incubate at room temperature. After the first incubation was complete, 50 μL of Donor Beads ([…] final concentration) was added to each well and mixed well, keeping the plate in the dark. The covered plate was placed on a shaker at 350 rpm for 30 minutes to incubate at room temperature. After incubation, all 100 uL in each to an AlphaPlate in the dark. Plates were read on a VictorNIVO using the “Alpha 96 Well” setting. Alpha reading was programmed as the default setting with emission at 700 ms and 575/110n. […]

In assay [2] the test system is fetal hemoglobin protein (HbF) in human erythroid progenitor cells. Description: Humanized mouse model: HbF protein in bone marrow by AlphaLISA. It counts as in vivo, NBSGW mice reconstituted with human CD34+ cells. Conditions: humanized mouse model, human erythroid progenitor cells, dose not given at this place. The source says: (§1) Results: To evaluate induction of target cell activity in the bone marrow, a humanized mouse model was developed. This model entails the reconstitution of human hematopoietic progenitor cells within the bone marrow of immunodeficient nonirradiated NOD.Cg-KitW-41J Tyr^+ Prkdc^scid Il2rg^tmlwjl/ThomJ (NBSGW) strain recipient mice. These mice are competent to engraft and differentiate human erythroid progenitor cells that express human adult hemoglobin mRNA and protein subunits within bone marrow.
(§2) Based on these exposure results, humanized mice were treated with either the clinical standard of care compound, hydroxyurea (50 mg/kg; bid), or I-73, at 25 and 100 mg/kg (bid), by oral gavage over a three-week period. At the end of the treatment period, bone marrow was harvested for flow cytometry, as well as for assessment of HbF protein and fetal hemoglobin (HBG1) mRNA levels. Levels of both HbF protein and HBG1 mRNA were normalized to the percentage of human erythroid progenitor cells in the bone marrow of each mouse as determined by immunofluorescence staining for human Glycophorin A cell membrane expression. […] In addition, relative levels of fetal hemoglobin to those of potentially sickling-prone adult hemoglobin (HBB) was assessed.
(§3) Female, 6-week-old NOD.Cg-Kit^W-41J Tyr^+ Prkdc^scid Il2rg^tm1Wjl/ThomJ (NBSGW) mice (Jackson Laboratory strain #[…]) were used for these studies. The mice were acclimatized to laboratory conditions for 5 days prior to inoculation.
(§4) GCSF-mobilized human CD34+ cells were removed from liquid nitrogen storage, thawed in a 37° C. water bath and transferred quickly into a 50 mL conical tube. Cryovial was rinsed once with thaw buffer, 0.1% BSA in phosphate buffered saline (PBS), and buffer was transferred and combined with the original contents in the 50 mL conical tube. Next, doubling volumes of thaw buffer was added to the conical and gently swirled for ˜30 seconds to one minute until the volume in the conical was 32 mL. Cells and buffer were centrifuged at 300G for 8 minutes, and the supernatants were aspirated. Cells were counted by resuspending in 1 mL of thawing buffer per million of cells to a target concentration range of 0.5 to 2M/ml and counting with AOPI (1:1) on a luna cell counter to confirm the concentration of cells/mL. The cell concentration was adjusted to 3×10^6 cells/ml. For each mouse, 300 thousand cells in 0.1 ml were injected into the tail vein with a 25-gauge needle.
(§5) On day 56 after human cell adoptive transfer, whole blood was collected from each mouse by submandibular bleed and a 100 μL sample of EDTA whole blood was transferred to a 2 ml tube containing 1.8 mL ACK Lysing Buffer at room temperature (RT), and then inverted to mix. Samples were incubated at RT for 15 min in the dark to lyse. After lysis, samples are centrifuged at 500×g for 5 minutes at RT to enable supernatant decanting. Remaining cells were washed with 1 mL of PBS-0.5% BSA and centrifuged at 500×g for 5 minutes at 4° C. Supernatant was decanted and cells were stained with leukocyte markers (human and mouse CD45 antibodies; BD347464, BD557659) to confirm human cell engraftment. Mice having less than one percent, or greater than ten percent, human CD45 positive cells were excluded from the subsequent study. Remaining mice were then randomized into treatment groups based on percentage of human cell engraftment. Each treatment group included 10-11 mice.
(§6) Compound I-73 was dissolved in a 5% Cremophor RH40, 20% hydroxylpropyl-β-cyclodextrin solution. Hydroxyurea was solubilized in PBS. Formulations were prepared fresh daily. Commencing on day 84 post human cell engraftment, mice were treated by oral gavage with either I-73, hydroxyurea or their respective vehicles, for a period of three weeks using either once daily (QD) or twice daily (BID) dosing regimens. Mice were monitored daily for body weight and condition. […]
(In general: In Alpha technology, singlet oxygen from a donor bead excites a nearby acceptor bead.)

Assay [3] deals with fetal hemoglobin gene expression (HBG1) in human erythroid progenitor cells. As to the kind of experiment: Humanized mouse model: fetal hemoglobin mRNA (HBG1, HBB) in bone marrow by Nanostring. It counts as in vivo, NBSGW mice reconstituted with human CD34+ cells. Conditions: humanized mouse model, human erythroid progenitor cells, dose not given at this place.
Description: as §1, §2, §3, §4, §5, §6

Regarding `NC(=O)NO` [hydroxyurea], the “average increase of HbF % over vehicle” value in assay [1] (HU 75 mg/kg alone, WLS ANOVA estimate) is recorded as 0.59. Besides, the “percentage of bone marrow cells expressing the erythroid cell marker glycophorin A” value in assay [1] (alone or in combination with I-73) is “dose-dependent increase”. Besides, the “percentage of HbF protein by HPLC in GlyA-positive bone marrow cells” value in assay [1] (compared with vehicle treatment group, FIG. 7) is recorded as “significant increase”. Further, the “percentage of bone marrow cells expressing human CD45” value in assay [1] (in vivo) is given as “did not alter”. In addition, the “HbF level on a per erythroid progenitor (GlyA-positive) cell basis by AlphaLISA” value in assay [1] (treatment alone) was “less HbF induction”. For the same compound, the “induction of fetal hemoglobin protein (HbF)” value in assay [2] is “demonstrated to induce”; in assay [2] (listed as Hydroxyurea), “significantly induces”. For the same compound, the figures for the “induction of fetal hemoglobin mRNA (HBG1)” value in assay [3] and in assay [3] (listed as Hydroxyurea) were “demonstrated to induce” and “significantly induces”, respectively.
